Assay results reported in patent US20210393604A1, “NOVEL BENZIMIDAZOLONE COMPOUND AND PHARMACEUTICAL USE THEREOF” (Sumitomo Dainippon Pharma Co., Ltd., priority 2017, published 2021).

Target: Nav 1.7 (human SCN9A) (Homo sapiens, UniProt Q15858)
Experiment: Measurement of Na ion current by automated patch clamp assay in cells stably-expressing human SCN9A
Format: cell-based
Conditions: compound concentration 10 μmol/L; peak current at 30th depolarizing pulse (10 Hz); holding potential inactivating 50% Nav 1.7 channel (around −60 mV); room temperature; read-out: Inhibitory rate (%) of Na ion current
Method: Measurement of Na Ion Current in Voltage-Dependent Na Channel Gene Expressed Cell
Nav 1.7 current was measured by automated patch clamp assay using cells stably-expressing human SCN9A.
Cells Stably-Expressing Human SCN9A
Tetracycline-induced cells stably-expressing SCN9A were obtained from ChanTest Corporation. The cells were passaged in Ham's F-12 medium containing […], 100 units/mL Penicillin-Streptomycin, 0.01 mg/mL Blasticidin, and 400 μg/mL Zeocin. The cell seeded on a glass slide was cultured in Ham's F-12 medium containing 1 μg/mL tetracycline, 1 μg/mL sodium butyrate, 10% fetal bovine serum, and 100 units/mL Penicillin-Streptomycin. Next day, the Na ion current was measured by automated patch clamp assay.
Electrophysiologic Measurement of Na Ion Current
The Na ion current was measured by automated patch clamp assay using the following extracellular solution and intracellular solution.
Extracellular solution (mmol/L): NaCl 130, MgCl2 2, CaCl2) 2, CdCl2 0.1, NiCl2 0.1, Tetraethylammonium-Cl 18, 4-aminopyridine 1, HEPES (4-(2-hydroxyethyl)-1-piperazineethanesulfonic acid) 10, (adjusting pH 7.4 with NaOH)
Intracellular solution (mmol/L): CsF 120, EGTA (ethylene glycol tetraacetic acid) 10, NaCl 15, HEPES 10, (adjusting pH 7.2 with CsOH)
The control of the stimulating pulse and the data acquisition were carried out using EPC10 amplifier and Patch Master Software (HEKA). Data were sampled at 20 kHz, and low-pass filtered at 2.9 kHz. All the measurements were carried out at room temperature. The holding potential was set at a potential inactivating 50% Nav 1.7 channel (around −60 mV), and depolarizing pulse of 20 milliseconds (around 0 mV) was given at a frequency of 10 Hz 30 times. […] The inhibitory rate of the Na ion current by the test compounds was calculated according to the following calculating formula with the peak current value generated by the 30th depolarizing pulse.
Inhibitory rate of Na ion current (%)=100×[(Peak current value in the absence of Test Compound)−(Peak current value in the presence of Test Compound)]/(Peak current value in the absence of Test Compound)

Chain of Nav 1.7 (human SCN9A) (Q15858 whole entry): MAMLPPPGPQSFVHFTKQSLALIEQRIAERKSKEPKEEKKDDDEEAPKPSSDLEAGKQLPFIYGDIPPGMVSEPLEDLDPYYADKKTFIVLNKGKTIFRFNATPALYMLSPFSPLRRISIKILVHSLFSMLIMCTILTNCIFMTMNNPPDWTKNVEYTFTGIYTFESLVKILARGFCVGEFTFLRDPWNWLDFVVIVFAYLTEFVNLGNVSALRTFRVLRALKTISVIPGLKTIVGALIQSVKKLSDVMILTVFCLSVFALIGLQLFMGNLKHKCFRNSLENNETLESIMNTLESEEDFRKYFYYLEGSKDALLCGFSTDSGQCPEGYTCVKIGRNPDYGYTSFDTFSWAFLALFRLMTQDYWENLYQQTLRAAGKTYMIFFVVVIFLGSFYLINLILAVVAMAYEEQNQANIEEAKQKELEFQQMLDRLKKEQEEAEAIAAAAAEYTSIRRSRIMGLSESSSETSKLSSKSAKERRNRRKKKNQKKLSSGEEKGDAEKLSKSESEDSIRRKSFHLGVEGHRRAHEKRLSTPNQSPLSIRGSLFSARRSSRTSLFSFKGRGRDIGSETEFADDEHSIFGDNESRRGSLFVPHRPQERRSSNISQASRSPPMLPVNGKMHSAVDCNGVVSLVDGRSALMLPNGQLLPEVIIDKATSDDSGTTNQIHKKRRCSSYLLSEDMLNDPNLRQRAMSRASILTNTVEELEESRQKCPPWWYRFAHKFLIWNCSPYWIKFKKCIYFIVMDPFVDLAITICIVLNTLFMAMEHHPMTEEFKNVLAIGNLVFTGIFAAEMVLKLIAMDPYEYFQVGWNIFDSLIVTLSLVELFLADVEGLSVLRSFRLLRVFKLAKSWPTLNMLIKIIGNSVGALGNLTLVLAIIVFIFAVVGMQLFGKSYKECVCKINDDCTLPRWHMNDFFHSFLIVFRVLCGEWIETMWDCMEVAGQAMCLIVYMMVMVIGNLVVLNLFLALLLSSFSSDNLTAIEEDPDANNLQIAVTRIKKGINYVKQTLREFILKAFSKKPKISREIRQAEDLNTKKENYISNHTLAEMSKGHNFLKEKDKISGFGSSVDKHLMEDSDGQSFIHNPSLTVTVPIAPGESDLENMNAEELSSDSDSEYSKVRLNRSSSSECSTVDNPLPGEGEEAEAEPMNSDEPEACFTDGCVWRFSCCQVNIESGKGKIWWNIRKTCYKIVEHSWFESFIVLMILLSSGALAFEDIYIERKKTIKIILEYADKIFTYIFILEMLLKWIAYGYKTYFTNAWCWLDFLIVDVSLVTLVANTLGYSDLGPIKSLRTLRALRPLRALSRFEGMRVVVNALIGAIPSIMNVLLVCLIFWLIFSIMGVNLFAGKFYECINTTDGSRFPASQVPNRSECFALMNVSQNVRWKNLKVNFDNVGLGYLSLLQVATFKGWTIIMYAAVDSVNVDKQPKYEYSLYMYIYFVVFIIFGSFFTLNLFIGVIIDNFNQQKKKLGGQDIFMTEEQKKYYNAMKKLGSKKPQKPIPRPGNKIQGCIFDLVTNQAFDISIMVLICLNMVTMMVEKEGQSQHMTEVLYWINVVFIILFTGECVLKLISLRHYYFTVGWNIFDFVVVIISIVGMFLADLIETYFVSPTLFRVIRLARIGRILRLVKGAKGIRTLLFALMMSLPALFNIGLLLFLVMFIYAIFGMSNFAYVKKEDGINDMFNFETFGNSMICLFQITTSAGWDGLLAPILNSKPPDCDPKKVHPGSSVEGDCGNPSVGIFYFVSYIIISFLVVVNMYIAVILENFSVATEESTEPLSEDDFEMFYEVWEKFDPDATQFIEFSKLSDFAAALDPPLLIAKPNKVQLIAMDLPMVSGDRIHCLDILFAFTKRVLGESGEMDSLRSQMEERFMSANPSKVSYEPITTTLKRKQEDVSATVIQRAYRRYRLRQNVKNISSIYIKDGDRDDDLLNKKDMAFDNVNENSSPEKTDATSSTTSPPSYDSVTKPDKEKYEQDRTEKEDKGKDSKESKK

SMILES | inhibition at 10 µM
CC(C)(O)Cn1c(=O)[nH]c2ccc(Oc3ccc(C(F)(F)F)cn3)cc21 [Example 1, 1-(2-hydroxy-2-methylpropyl)-6-{[5-(trifluoromethyl)pyridin-2-yl]oxy}-1,3-dihydro-2H-benzimidazol-2-one] | 33%
O=c1[nH]c2ccc(Oc3ccc(C(F)(F)F)cn3)cc2n1CC1(O)COC1 [Example 2, 1-[(3-hydroxyoxetan-3-yl)methyl]-6-{[5-(trifluoromethyl)pyridin-2-yl]oxy}-1,3-dihydro-2H-benzimidazol-2-one] | 26%
O=c1[nH]c2ccc(Oc3ccc(C(F)(F)F)nc3)cc2n1CC1(O)COC1 [Example 3, 1-[(3-hydroxyoxetan-3-yl)methyl]-6-{[6-(trifluoromethyl)pyridin-3-yl]oxy}-1,3-dihydro-2H-benzimidazol-2-one] | 22%
O=c1[nH]c2ccc(Oc3ccc(C(F)(F)F)cn3)cc2n1[C@H]1CC[C@@H](O)CC1 [Example 4, 1-(cis-4-hydroxycyclohexyl)-6-{[5-(trifluoromethyl)pyridin-2-yl]oxy}-1,3-dihydro-2H-benzimidazol-2-one] | 39%
O=c1[nH]c2ccc(Oc3ccc(OC(F)(F)F)cc3)cc2n1CC1(O)COC1 [Example 5, 1-[(3-hydroxyoxetan-3-yl)methyl]-6-[4-(trifluoromethoxy)phenoxy]-1,3-dihydro-2H-benzimidazol-2-one] | 86%
CC(C)(O)Cn1c(=O)[nH]c2ccc(Oc3ccc(F)cc3)cc21 [Example 6, 6-(4-fluorophenoxy)-1-(2-hydroxy-2-methylpropyl)-1,3-dihydro-2H-benzimidazol-2-one] | 40%
O=c1[nH]c2ccc(Oc3ccc(F)cc3)cc2n1CC1(O)COC1 [Example 7, 6-(4-fluorophenoxy)-1-[(3-hydroxyoxetan-3-yl)methyl]-1,3-dihydro-2H-benzimidazol-2-one] | 40%
O=c1[nH]c2ccc(Oc3ccc(Cl)cc3)cc2n1CC1(O)COC1 [Example 8, 6-(4-chlorophenoxy)-1-[(3-hydroxyoxetan-3-yl)methyl]-1,3-dihydro-2H-benzimidazol-2-one] | 80%
C[C@H](n1c(=O)[nH]c2ccc(Oc3ccc(C(F)(F)F)cn3)cc21)C(C)(C)O [Example 9, 1-[(2S)-3-hydroxy-3-methylbutan-2-yl]-6-{[5-(trifluoromethyl)pyridin-2-yl]oxy}-1,3-dihydro-2H-benzimidazol-2-one] | 27%
C[C@H](n1c(=O)[nH]c2ccc(Oc3ccc(F)cc3)cc21)C(C)(C)O [Example 10, 6-(4-fluorophenoxy)-1-[(2S)-3-hydroxy-3-methylbutan-2-yl]-1,3-dihydro-2H-benzimidazol-2-one] | 50%
O=c1[nH]c2ccc(Oc3ccc(F)cc3)cc2n1[C@H]1CC[C@@H](O)CC1 [Example 11, 6-(4-fluorophenoxy)-1-(cis-4-hydroxycyclohexyl)-1,3-dihydro-2H-benzimidazol-2-one] | 65%
CCn1c(=O)n(CC(C)(C)O)c2cc(Oc3ccc(C(F)(F)F)cn3)ccc21 [Example 12, 1-ethyl-3-(2-hydroxy-2-methylpropyl)-5-{[5-(trifluoromethyl)pyridin-2-yl]oxy}-1,3-dihydro-2H-benzimidazol-2-one] | 14%
Cn1c(=O)n(CC(C)(C)O)c2cc(Oc3ccc(C(F)(F)F)cn3)ccc21 [Example 13, 3-(2-hydroxy-2-methylpropyl)-1-methyl-5-{[5-(trifluoromethyl)pyridin-2-yl]oxy}-1,3-dihydro-2H-benzimidazol-2-one] | 38%
Cn1c(=O)n(CC2(O)COC2)c2cc(Oc3ccc(C(F)(F)F)cn3)ccc21 [Example 14, 3-[(3-hydroxyoxetan-3-yl)methyl]-1-methyl-5-{[5-(trifluoromethyl)pyridin-2-yl]oxy}-1,3-dihydro-2H-benzimidazol-2-one] | 39%
Cn1c(=O)n(CC2(O)COC2)c2cc(Oc3ccc(C(F)(F)F)nc3)ccc21 [Example 15, 3-[(3-hydroxyoxetan-3-yl)methyl]-1-methyl-5-{[6-(trifluoromethyl)pyridin-3-yl]oxy}-1,3-dihydro-2H-benzimidazol-2-one] | 46%
Cn1c(=O)n(CC2(O)COC2)c2cc(Oc3ccc(F)cc3)ccc21 [Example 16, 5-(4-fluorophenoxy)-3-[(3-hydroxyoxetan-3-yl)methyl]-1-methyl-1,3-dihydro-2H-benzimidazol-2-one] | 61%
Cn1c(=O)n(CC2(O)COC2)c2cc(Oc3ccc(OC(F)(F)F)cc3)ccc21 [Example 17, 3-[(3-hydroxyoxetan-3-yl)methyl]-1-methyl-5-[4-(trifluoromethoxy)phenoxy]-1,3-dihydro-2H-benzimidazol-2-one] | 87%
Cn1c(=O)n(CC2(O)COC2)c2cc(Oc3ccc(Cl)cc3)ccc21 [Example 18, 5-(4-chlorophenoxy)-3-[(3-hydroxyoxetan-3-yl)methyl]-1-methyl-1,3-dihydro-2H-benzimidazol-2-one] | 86%
CC(C)(O)Cn1c(=O)[nH]c2ccc(-c3ccc(C(F)(F)F)nc3)cc21 [Example 19, 1-(2-hydroxy-2-methylpropyl)-6-[6-(trifluoromethyl)pyridin-3-yl]-1,3-dihydro-2H-benzimidazol-2-one] | 8%
CC(C)(O)Cn1c(=O)[nH]c2ccc(-c3ccc(C(F)(F)F)cn3)cc21 [Example 20, 1-(2-hydroxy-2-methylpropyl)-6-[5-(trifluoromethyl)pyridin-2-yl]-1,3-dihydro-2H-benzimidazol-2-one] | 29%
CC(C)(O)Cn1c(=O)[nH]c2ccc(-c3ccc(C(F)(F)F)cc3)cc21 [Example 21, 1-(2-hydroxy-2-methylpropyl)-6-[4-(trifluoromethyl)phenyl]-1,3-dihydro-2H-benzimidazol-2-one] | 96%
CC(C)(O)Cn1c(=O)[nH]c2ccc(-c3ccc(F)cc3)cc21 [Example 22, 6-(4-fluorophenyl)-1-(2-hydroxy-2-methylpropyl)-1,3-dihydro-2H-benzimidazol-2-one] | 43%
CC(C)(O)Cn1c(=O)[nH]c2cc(-c3ccc(C(F)(F)F)nc3)ccc21 [Example 23, 1-(2-hydroxy-2-methylpropyl)-5-[6-(trifluoromethyl)pyridin-3-yl]-1,3-dihydro-2H-benzimidazol-2-one] | 36%
CC(C)(O)Cn1c(=O)[nH]c2cc(-c3ccc(F)cc3)ccc21 [Example 24, 5-(4-fluorophenyl)-1-(2-hydroxy-2-methylpropyl)-1,3-dihydro-2H-benzimidazol-2-one] | 45%
CC(C)(O)Cn1c(=O)[nH]c2cc(Oc3ccc(OC(F)(F)F)cc3)ccc21 [Example 25, 1-(2-hydroxy-2-methylpropyl)-5-[4-(trifluoromethoxy)phenoxy]-1,3-dihydro-2H-benzimidazol-2-one] | 42%
CC(C)(O)Cn1c(=O)[nH]c2cc(Oc3ccc(C(F)(F)F)cn3)ccc21 [Example 26, 1-(2-hydroxy-2-methylpropyl)-5-{[5-(trifluoromethyl)pyridin-2-yl]oxy}-1,3-dihydro-2H-benzimidazol-2-one] | 32%
O=c1[nH]c2cc(Oc3ccc(OC(F)(F)F)cc3)ccc2n1CC1(O)COC1 [Example 27, 1-[(3-hydroxyoxetan-3-yl)methyl]-5-[4-(trifluoromethoxy)phenoxy]-1,3-dihydro-2H-benzimidazol-2-one] | 38%
Cn1c(=O)n(CC2(O)COC2)c2ccc(Oc3ccc(OC(F)(F)F)cc3)cc21 [Example 28, 1-[(3-hydroxyoxetan-3-yl)methyl]-3-methyl-5-[4-(trifluoromethoxy)phenoxy]-1,3-dihydro-2H-benzimidazol-2-one] | 39%
